From patent US11828759B2, “Method of diagnosis” (Peter MacCallum Cancer Institute, priority 2016, dated 2023)
“Also recorded” adds a separate entry of the source.

Legend:
[1] = tested on: E-cadherin; test: Western blot of E-cadherin in N1ME cells and supernatant after CA-074 treatment; assay type: cell-based, human; conditions: N1ME stefin A wild type or stefin A low cells; CA-074 for 72 hours
Method: (§1) Cells were lysed by freezing in citrate buffer (50 mM citrate, pH 5.5, 0.5% CHAPS, 0.1% TRITON™ X-100, 4 mM DTT). For cathepsin B activity gels, activity-based probes [GB123 (1 μM) (29) or BMV109 (0.1 μM) (Verdoes et al. 2013)] were added to lysates from a 100×stock, and proteins were incubated for 30 minutes at 37° C. The addition of 4×sample buffer (40% glycerol, 200 mM Tris-HCl pH 6.8, 0.04% bromophenol blue, 5% beta-mercaptoethanol) stopped the reaction with boiling for 10 minutes. Proteins (30-50 μg) were separated by SDS-PAGE (on either 15% acrylamide or gradient 4-20% gels, precast from BIO-RAD, CA, USA) and visualized using a TYPHOON flatbed laser scanner (GE Healthcare, UK) for Cy5 fluorescence. For immunoblotting, proteins were transferred to nitrocellulose membranes and subjected to standard Western blotting protocols. Membranes were incubated with 1 μg/ml primary antibodies against stefin A, cathepsin B (R&D Systems, Minneapolis, USA, AF965), DSG3 (Life Technologies, 326300), E-cadherin (Novus, NB-110-56937), or 1:10,000 dilutions of β-actin (Sigma-Aldrich, MO, USA, A22280) or GAPDH (Cell Signaling Technology, MA, USA, 8884). Signal was detected using ECL (GE Healthcare), G:Box GelDoc (Syngene, CBG, UK) and GeneSys (Syngene) software with automatic exposure.
(§2) To collect secreted proteins, cells were incubated in serum free media for 24 hours. […]

[2] = tested on: DSG3; test: Western blot of DSG3 in N1ME cells and conditioned media after CA-074 treatment; assay type: cell-based, human; conditions: CA-074 for 72 hours vs DMSO
Method: as §1, §2

[3] = tested on: MMTV-PyMT mice (spontaneous mammary gland tumors); test: MMTV-PyMT mouse model of DCIS-to-invasive transition; assay type: in vivo; conditions: 50 mg/kg intraperitoneal daily, day 30-49
Method: Mouse investigations were performed after approval by the La Trobe University Animal Ethics Committee. Bl/6 MMTV-PyMT positive female mice were injected (intraperitoneal, 200 μl/20 g mouse) daily with 50 mg/kg CA-074 or vehicle (5% DMSO/saline) from day 30-49. On day 50, mice were culled and second, third and fourth mammary glands were resected and sent for histology. Mouse tissues were fixed in 10% buffered formalin for 6 hours and paraffin-embedded. Sections at three different depths throughout the mammary gland were taken and were stained with hematoxylin and eosin according to standard protocols. Alternatively, sections were stained with 1 μg/ml anti-α-smooth muscle actin (ABCAM, ab66133) or with isotype control antibodies, as above. Sections were scored by a pathologist blinded to treatment groups (Sandra O'Toole) for the presence of invasive regions of cancer growth within the mammary gland. Experiment included 8 mice per group.

[4] = tested on: MDA-MB-231 cells; test: 3D culture / co-culture invasion model on reconstituted basement membrane; assay type: cell-based, human; conditions: for invasive protrusions / invasive outgrowths of co-cultures: MDA-MB-231 co-cultured 1:1 with N1ME stefin A low myoepithelial cells, 50 μM inhibitor in media, refreshed every 48 hours, vs DMSO control, n=3
Method: All 3D cultures were performed using CULTREX® (Trevigen, Gaithersburg, MD, 3433-005-01) similar to previously described (Mullins et al.). Briefly, 8 well chambers (THERMOFISHER, NUN155409) were coated with 100% CULTREX and allowed to solidify at 37° C. Cells (pre-mixed at 1:1 ratio) were seeded on top of the solidified CULTREX and allowed to adhere for 60-90 minutes before 2% CULTREX in MEGM media (LONZA) was overlaid. Media was changed every 4 days unless otherwise stated. On day 7, Z-stacks were captured on a ZEISS LSM 780 inverted confocal microscope, and 3D-reconstructions were created using IMARIS.
Bright-field images at 40× magnification were taken on the Olympus BX41 using a DP25 camera and DP2-BSW software (Olympus, TYO, Japan) to observe overall multicellular morphology. Nuclei were labelled with cell permeable Hoechst (Thermo Scientific, MA, USA, 33342) and rinsed with PBS. Confocal microscopy was performed on a Zeiss LSM 780 inverted confocal microscope (Zeiss, Thornwood, NY, USA) with a 10×/0.45 air-objective, with 37° C., 5% CO2 incubation. Z-stacks were captured using ZEN software (Zeiss) and 3D-reconstructions were created using IMARIS (Bitplane, Switzerland) including volume rendering.
Images of 3D cultures were processed and analyzed using the Fiji distribution of IMAGEJ (Schindelin et al. 2012) as follows. Extraction and mask generation of the individual cultures was carried out by applying an edge filter followed by an unsharp mask (radius=6, mask=0.8). The resulting image was blurred using a Gaussian filter (sigma=4) to make subsequent thresholding more accurate. A threshold was applied, manually adjusted if required and used to create a binary mask. The resulting mask was filtered by size to remove small, erroneous, debris. Each individual 3D cultures mask was then measured for its perimeter and convex hull lengths. […]
All statistics were calculated and graphed using PRISM version 7. […] Variation in mean convex hull to perimeter ratio was determined using one-way ANOVA followed by Tukey's post hoc analysis.

[5] = biological target: T1, cathepsin B (Homo sapiens, UniProt P07858); test: Stefin A in vitro inhibition of cathepsin B in N1ME cell lysate (BMV109 activity based probe); assay type: biochemical; conditions: increasing concentrations of recombinant stefin A, 15 min at 37 C
T1 construct: SDS-PAGE gel electrophoresis of N1ME cell lysate incubated with increasing concentrations of recombinant stefin A; endogenous in cells; host or cells: N1ME (hTERT-immortalized human myoepithelial cells), lysed in citrate buffer pH 5.5
Method: as §1, with “exposure. […]” for “exposure.”

[6] = biological target: T2, cathepsin L (Homo sapiens, UniProt P07711); test: Stefin A in vitro inhibition of cathepsin L in N1ME cell lysate (BMV109 activity based probe); assay type: biochemical; conditions: increasing concentrations of recombinant stefin A, 15 min at 37 C
T2 construct: SDS-PAGE gel electrophoresis of N1ME cell lysate incubated with increasing concentrations of recombinant stefin A; endogenous in cells; host or cells: N1ME (hTERT-immortalized human myoepithelial cells), lysed in citrate buffer pH 5.5
T2 sequence (P07711 114-333): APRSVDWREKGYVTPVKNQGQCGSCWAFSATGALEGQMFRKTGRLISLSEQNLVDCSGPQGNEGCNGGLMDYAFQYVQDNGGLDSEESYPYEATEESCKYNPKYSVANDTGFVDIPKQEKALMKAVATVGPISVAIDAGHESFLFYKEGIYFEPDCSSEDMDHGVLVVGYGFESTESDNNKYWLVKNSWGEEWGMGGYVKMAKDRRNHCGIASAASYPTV

Molecule | E-cadherin expression in whole cell lysates or ecto-protein [1] | DSG3 protein in whole cell lysates ([2]; N1ME stefin A low cells) | cleaved extracellular domain of DSG3 (ecto-DSG3) in conditioned media ([2]; N1ME wild type and stefin A low cells) | mice progressed to IDC at experimental endpoint ([3]; glands scored at day 50, 8 mice per group, control 6/8) | number of invasive regions throughout the mammary gland ([3]; vs DMSO control) | invasive protrusions / invasive outgrowths of co-cultures [4] | cathepsin B activity [5] | cathepsin L activity [6] | invasion of MDA-MB-231 cells cultured alone ([4]; MDA-MB-231 alone, without myoepithelial cells)
CCCNC(=O)[C@H]1O[C@@H]1C(=O)N[C@H](C(=O)N1CCC[C@H]1C(=O)O)[C@@H](C)CC [CA-074] | did not affect E-cadherin expression | rescued in whole cell lysates; also recorded: an increase in protein was noted for DSG3 | decreased the cleaved extracellular domain of DSG3 | 2/8 | decreased the number of invasive regions | rescued the phenotype caused by stefin A loss |  |  | 
JPM-OEt |  |  |  |  |  | reverted the invasive protrusions in the co-cultures, however not to the same extent as CA-074, and was not statistically significant |  |  | 
recombinant stefin A: recombinant stefin A (R&D Systems, 1407-PI-050), an 11 kDa cysteine protease inhibitor (protein, UniProt P01040 1-98, looked up) Cystatin-A: MIPGGLSEAKPATPEIQEIVDKVKPQLEEKTNETYGKLEAVQYKTQVVAGTNYYIKVRAGDNKYMHLKVFKSLPGQNEDLVLTGYQVDKNKDDELTGF |  |  |  |  |  |  | can be inhibited | can be inhibited | did not inhibit invasion
